Like-named read-outs stand apart in the source and are kept apart here.
Columns and labels:
[1] = Polymorph screening, heat/humidity exposure of Form I (XRPD); assay type: physicochemical
Procedure: Polymorphic Form I of (R)-N-(5-(5-ethyl-1,2,4-oxadiazol-3-yl)-2,3-dihydro-1H-inden-1-yl)-1-methyl-1H-pyrazole-4-carboxamide was mixed with various solvents under various conditions. Samples generated were analyzed by XRPD.

[2] = Dynamic Vapor Sorption (DVS); assay type: physicochemical; conditions: 5-90% relative humidity (RH) range, 25° C.
Procedure: DVS analyses were carried out TA Instruments Q5000 Dynamic Vapor Sorption analyzer. The instrument was calibrated with standard weights and a sodium bromide standard for humidity. Samples were analyzed at 25° C. with a maximum equilibration time of 60 minutes in 10% relative humidity (RH) steps from 5 to 95% RH (adsorption cycle) and from 95 to 5% RH (desorption cycle).
Polymorphic Form I of (R)-N-(5-(5-ethyl-1,2,4-oxadiazol-3-yl)-2,3-dihydro-1H-inden-1-yl)-1-methyl-1H-pyrazole-4-carboxamide was analyzed by XRPD, DSC, TGA, and DVS. […] As shown in the TGA graph, a weight loss of 0.2% below 200° C., was observed.

[3] = Competitive slurry experiments between Form I and Form IV; assay type: physicochemical
Description: The results of the competitive slurry experiments are provided below in Table 7.

[4] = system: myocytes; test: Myocyte contractility assay (fractional shortening, edge detection); assay type: cell-based, Sprague-Dawley rats; conditions: 5 μM, adult rat myocytes, 5 min perfusion, 5 cells tested
Procedure: Adult male Sprague-Dawley rats were anesthetized and the hearts were quickly excised, rinsed and the ascending aorta was cannulated. Continuous retrograde perfusion was initiated on the hearts at a perfusion pressure of 60 cm H2O. Hearts were first perfused with a nominally Ca^2+-free modified Krebs solution of the following composition: 113 mM NaCl, 4.7 mM KCl, 0.6 mM KH2PO4, 0.6 mM Na2HPO4, 1.2 mM MgSO4, 12 mM NaHCO3, 10 mM KHCO3, 30 mM taurine, 5.5 mM glucose and 10 mM Hepes (all Sigma). This medium is not recirculated and is continually aerated with a 95% O2/5% CO2 mixture. […]
Aliquots of myocytes in Tyrode's buffer were placed in perfusion chambers (series 20 RC-27NE; Warner Instruments) complete with heating platforms. […] Contractility of the myocytes and contraction and relaxation velocities were then recorded using edge detection.
Five or more individual myocytes were tested per compound from two or more different myocyte preparations. […] These average transients were analyzed using the IonWizard software (IonOptix) to determine changes in diastolic length and fractional shortening. Fractional shortening was calculated as: ((resting length−length at peak contraction) divided by the resting length). The percent change in fractional shortening from baseline was calculated as: ((post-dose fractional shortening/basal fractional shortening)*100). […]

[5] = system: Rat Cardiac Contractility; test: Echocardiography assessment of acute pharmacodynamic effect in rat cardiac contractility; assay type: in vivo, Sprague Dawley rats
Procedure: Assessment of in vivo cardiac function by echocardiography was performed in male Sprague Dawley rats under isoflurane (1-3%) anesthesia. 2-D M-mode images of the left ventricle were acquired in the parasternal long-axis view before, during, and after administration of compounds by continuous IV infusion or oral gavage. In vivo fractional shortening was determined by M-mode image analysis with the following calculation: ((End diastolic diameter—end systolic diameter)/end diastolic diameter×100). For continuous IV infusion experiments, three pre-dose baseline M-mode images were taken at 1 minute intervals prior to infusion of compound. Compounds were formulated in 50% Propylene Glycol (PG): 16% Captisol: 10% dimethylacetamide (DMA) and delivered via a jugular vein catheter at the rate of 1 mL/kg/h. During infusion, M-mode images were taken at 5 minute intervals. The infusion stopped when fractional shortening reached up to a 60% reduction from baseline. Blood samples were taken to determine the plasma concentration of the compounds. Data was reported as an estimated IC50 value, which is the concentration at which fractional shortening is 50% of the pre-dose baseline contractility.
For oral dosing studies, three pre-dose baseline M-Mode images were taken at 1 minute intervals prior to compound administration. […] Rats were lightly anesthetized for M-Mode echocardiography measurements at select time points over a 24 hour period. Different dose levels were evaluated. The compound effect on cardiac fractional shortening at the highest dose evaluated is presented below as a percent reduction of baseline fractional shortening (=100%).
Concurrent with echocardiography measurements, blood samples were taken to determine the corresponding compound plasma concentration.

Structure (SMILES): CCc1nc(-c2ccc3c(c2)CC[C@H]3NC(=O)c2cnn(C)c2)no1 [Form I, (R)-N-(5-(5-ethyl-1,2,4-oxadiazol-3-yl)-2,3-dihydro-1H-inden-1-yl)-1-methyl-1H-pyrazole-4-carboxamide]
- XRPD form after heat/humidity exposure ([1]; none, RT, 0% RH): Form I
- XRPD form after heat/humidity exposure ([1]; water vapor, 40° C., 75% RH): Form I
- XRPD form after heat/humidity exposure ([1]; water vapor, RT, 59% RH): Form I
- XRPD form after heat/humidity exposure ([1]; water vapor, RT, 75% RH): Form I
- XRPD form after heat/humidity exposure ([1]; water vapor, RT, 97% RH): Form I
- moisture uptake as determined by DVS [2]: 0.60 % w/w

Structure (SMILES): CCc1nc(-c2ccc3c(c2)CC[C@H]3NC(=O)c2cnn(C)c2)no1 [Form IV, (R)-N-(5-(5-ethyl-1,2,4-oxadiazol-3-yl)-2,3-dihydro-1H-inden-1-yl)-1-methyl-1H-pyrazole-4-carboxamide]
- relative stability of forms in competitive slurry ([3]; temperature range 2-60° C.): more stable than Form I

Structure (SMILES): CCc1nc(-c2ccc3c(c2)CC[C@H]3NC(=O)c2cnn(C)c2)no1 [(R)-N-(5-(5-ethyl-1,2,4-oxadiazol-3-yl)-2,3-dihydro-1H-inden-1-yl)-1-methyl-1H-pyrazole-4-carboxamide]
- % FS (% reduction from baseline) ± SEM [4]: 67.4 ± −5.8%
- FS (% reduction from baseline) at 1-2 h post dose (Mean ± S.D.) ([5]; 2 mg/kg single dose by oral gavage, rat, 1-2 h post dose): 43 ± 9%
- FS (% reduction from baseline) at 4 h post dose (Mean ± S.D.) ([5]; 2 mg/kg single dose by oral gavage, rat, 4 h post dose): 31 ± 9%
- IC50 ([5]; continuous IV infusion, rats under isoflurane, read-out: estimated IC50 (plasma concentration at which fractional shortening is 50% of pre-dose baseline contractility), Mean±S.D.): 7.2 ± 0.2 µM
- estimated IC10 (plasma concentration, fractional shortening) ([5]; oral dosing studies, rat): 0.8 µM
- IC50 ([5]; oral dosing studies, rat, read-out: estimated IC50 (plasma concentration, fractional shortening)): 7.9 µM

Structure (SMILES): CCc1nc(-c2ccc3c(c2)CC[C@H]3NC(=O)c2cnn(C)c2)no1 [Forms I and IV, (R)-N-(5-(5-ethyl-1,2,4-oxadiazol-3-yl)-2,3-dihydro-1H-inden-1-yl)-1-methyl-1H-pyrazole-4-carboxamide]
- XRPD form after competitive slurry ([3]; ACN, 2 ° C.): Form IV
- XRPD form after competitive slurry ([3]; ACN, 25 ° C.): Form IV
- XRPD form after competitive slurry ([3]; ACN, 60 ° C.): Form IV
- XRPD form after competitive slurry ([3]; acetone, 2 ° C.): Form IV
- XRPD form after competitive slurry ([3]; acetone, 25 ° C.): Form IV
- XRPD form after competitive slurry ([3]; acetone, 60 ° C.): Form IV

From patent US20220315571A1 (Cytokinetics, Inc., priority 2019, published 2022)
